We go through 31 compounds from patent US9738642B2, “Triazolopyridine ether derivatives and their use in neurological and pyschiatric disorders” (BRISTOL-MYERS SQUIBB COMPANY, priority 2013, dated 2017).

Structures can show the parent of a compound that is named as a salt. Where two headings read alike, the source gives them in different places.

This test deals with T1, human mGluR2 (Homo sapiens, UniProt Q14416).
T1 construct: expressed in transfected cells; host or cells: HEK293 clonal line
Description: mGluR2 cAMP assay. The conditions noted are these: clonally expressed human mGluR2 in HEK293, 1 μM forskolin, 1 μM LY-341495, 30 min, CISBIO cAMP kit. Type of test: cell-based. On the procedure: On the day of the assay, media was removed, cells washed with PBS, cells harvested and pelleted by centrifugation. Cell pellets were resuspended in stimulation buffer without forskolin and counted. […] A standard curve was created using a top concentration of cAMP of 1 μM in the stimulation buffer, 1:3 dilutions over 14 points in the absence of cells. […] In house software converted the fluorescence value ratios to units of cAMP concentration, which is then used to calculate % inhibition for each test compound. MGluR2 cAMP Assay Materials and Methods. […] Buffer without forskolin was used as a negative control. Solutions of D2 and cryptate detection reagents from the CISBIO dynamic cAMP kit (62AM4PEJ) were diluted 1:40 in lysis buffer. Lysis buffer consisted of 50 mM Phosphate Buffer pH 7.0, 800 mM Potassium Fluoride, 0.2% BSA, and 1.0% Triton. Assay reaction was terminated by addition of detection reagents in lysis buffer. One hour later, plates were read on a PE Viewlux. Data was extracted, and concentration response curves generated by fitting the data to a standard 4 parameter logistic equation from which EC50 values were determined.
(Cyclic AMP is a second messenger, typically raised through Gs and lowered through Gi signalling.)

Where [1] appears, read: read-out: EC50 (nM), activity in mGluR2 cAMP assay.

T1 sequence (Q14416 19-872): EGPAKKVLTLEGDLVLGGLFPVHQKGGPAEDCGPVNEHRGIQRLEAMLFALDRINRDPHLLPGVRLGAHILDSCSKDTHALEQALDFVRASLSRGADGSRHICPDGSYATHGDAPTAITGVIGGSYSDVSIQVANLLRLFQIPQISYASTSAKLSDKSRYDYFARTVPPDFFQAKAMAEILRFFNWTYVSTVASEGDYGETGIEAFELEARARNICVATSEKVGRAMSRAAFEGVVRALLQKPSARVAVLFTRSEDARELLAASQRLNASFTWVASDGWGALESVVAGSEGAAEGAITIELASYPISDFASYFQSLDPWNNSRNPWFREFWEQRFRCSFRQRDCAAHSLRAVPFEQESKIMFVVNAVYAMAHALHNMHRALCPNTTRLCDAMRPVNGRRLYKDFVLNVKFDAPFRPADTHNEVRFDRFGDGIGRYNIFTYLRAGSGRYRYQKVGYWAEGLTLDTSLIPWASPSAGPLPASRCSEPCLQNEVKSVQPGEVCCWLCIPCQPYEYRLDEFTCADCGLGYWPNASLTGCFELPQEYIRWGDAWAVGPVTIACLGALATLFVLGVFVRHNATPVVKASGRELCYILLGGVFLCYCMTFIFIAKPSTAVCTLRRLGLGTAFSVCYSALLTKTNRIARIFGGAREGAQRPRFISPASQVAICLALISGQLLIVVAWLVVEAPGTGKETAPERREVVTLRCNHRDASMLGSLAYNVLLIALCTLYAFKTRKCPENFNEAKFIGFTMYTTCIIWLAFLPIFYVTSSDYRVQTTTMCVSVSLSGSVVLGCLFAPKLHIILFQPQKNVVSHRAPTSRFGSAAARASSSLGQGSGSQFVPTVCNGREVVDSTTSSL

As for `CC(COc1ccn2c(CC3CC3)nnc2c1C(F)(F)F)c1ccc(F)cc1` (racemic) [Example 4, 3-(Cyclopropylmethyl)-7-(2-(4-fluorophenyl)propoxy)-8-(trifluoromethyl)-[1,2,4]triazolo[4,3-a]pyridine, TFA salt], under setting [1], the EC50 (as a rule, the concentration that produces a half-maximal response) came out at 10 nM. Take `CC(COc1ccn2c(CC3CC3)nnc2c1C(F)(F)F)c1c(F)cccc1Cl` (racemic) [Example 5, 7-(2-(2-Chloro-6-fluorophenyl)propoxy)-3-(cyclopropylmethyl)-8-(trifluoromethyl)-[1,2,4]triazolo[4,3-a]pyridine]: under setting [1], the EC50 worked out at 1 nM. With `CC(C#N)(COc1ccn2c(CC3CC3)nnc2c1C(F)(F)F)c1ccc(F)cc1` (racemic) [Example 12, 3-(3-(Cyclopropylmethyl)-8-(trifluoromethyl)-[1,2,4]triazolo[4,3-a]pyridin-7-yloxy)-2-(4-fluorophenyl)-2-methylpropanenitrile, TFA salt], the EC50 under setting [1] was 130 nM. Same read-out and setting: in the case of `COC(C)(COc1ccn2c(CC3CC3)nnc2c1C(F)(F)F)c1ccc(F)cc1` (racemic) [Example 21, 3-(Cyclopropylmethyl)-7-(2-(4-fluorophenyl)-2-methoxypropoxy)-8-(trifluoromethyl)-[1,2,4]triazolo[4,3-a]pyridine] it was 31 nM; in that of `FC(F)(F)c1c(OC[C@H]2C[C@@H]2c2ccc(Cl)cc2)ccn2c(CC3CC3)nnc12` (racemic) [Example 31, (±)-7-(((1S,2S)-2-(4-chlorophenyl)cyclopropyl)methoxy)-3-(cyclopropylmethyl)-8-(trifluoromethyl)-[1,2,4]triazolo[4,3-a]pyridine], 1.3 nM; in that of `COc1cccc(F)c1[C@H]1C[C@@H]1COc1ccn2c(CC3CC3)nnc2c1C(F)(F)F` (racemic) [Example 32, (±)-3-(Cyclopropylmethyl)-7-(((1S,2S)-2-(2-fluoro-6-methoxyphenyl)cyclopropyl)methoxy)-8-(trifluoromethyl)-[1,2,4]triazolo[4,3-a]pyridine], 0.3 nM. As for `COc1ccccc1[C@H]1C[C@@H]1COc1ccn2c(CC3CC3)nnc2c1C(F)(F)F` (racemic) [Example 37, (±)-3-(Cyclopropylmethyl)-7-(((1S,2S)-2-(2-methoxyphenyl)cyclopropyl)methoxy)-8-(trifluoromethyl)-[1,2,4]triazolo[4,3-a]pyridine], the half-maximal effective concentration (EC50) under setting [1] came to 0.2 nM. In the case of `FC(F)(F)Oc1ccccc1[C@H]1C[C@@H]1COc1ccn2c(CC3CC3)nnc2c1C(F)(F)F` (racemic) [Example 38, (±)-3-(Cyclopropylmethyl)-7-(((1S,2S)-2-(2-(trifluoromethoxy)phenyl)cyclopropyl)methoxy)-8-(trifluoromethyl)-[1,2,4]triazolo[4,3-a]pyridine], under setting [1], the EC50 is 1.4 nM. With `Fc1ccccc1[C@H]1C[C@@H]1COc1ccn2c(CC3CC3)nnc2c1C(F)(F)F` (racemic) [Example 43, (±)-3-(Cyclopropylmethyl)-7-(((1S,2S)-2-(2-fluorophenyl)cyclopropyl)methoxy)-8-(trifluoromethyl)-[1,2,4]triazolo[4,3-a]pyridine], under setting [1], the EC50 was 1.4 nM. Consider `Fc1ccc(F)c([C@H]2C[C@@H]2COc2ccn3c(CC4CC4)nnc3c2C(F)(F)F)c1` (racemic) [Example 44, (±)-3-(Cyclopropylmethyl)-7-(((1S,2S)-2-(2,5-difluorophenyl)cyclopropyl)methoxy)-8-(trifluoromethyl)-[1,2,4]triazolo[4,3-a]pyridine], for which the EC50 under setting [1] amounted to 1.9 nM. For `COc1ccc([C@H]2C[C@@H]2COc2ccn3c(CC4CC4)nnc3c2C(F)(F)F)cc1` (racemic) [Example 45, (±)-3-(Cyclopropylmethyl)-7-(((1S,2S)-2-(4-methoxyphenyl)cyclopropyl)methoxy)-8-(trifluoromethyl)-[1,2,4]triazolo[4,3-a]pyridine], the EC50 under setting [1] stood at 1.3 nM. With `COc1c(F)ccc(F)c1[C@H]1C[C@@H]1COc1ccn2c(CC3CC3)nnc2c1C(F)(F)F` (racemic) [Example 47, (±)-3-(Cyclopropylmethyl)-7-(((1S,2S)-2-(3,6-difluoro-2-methoxyphenyl)cyclopropyl)methoxy)-8-(trifluoromethyl)-[1,2,4]triazolo[4,3-a]pyridine], the EC50 under setting [1] came out at 0.8 nM.

As to `Fc1cccc(Cl)c1[C@H]1C[C@@H]1COc1ccn2c(CC3CC3)nnc2c1C(F)(F)F` (racemic) [Example 48, (±)-7-(((1S,2S)-2-(2-chloro-6-fluorophenyl)cyclopropyl)methoxy)-3-(cyclopropylmethyl)-8-(trifluoromethyl)-[1,2,4]triazolo[4,3-a]pyridine], under setting [1], the EC50 amounted to 0.5 nM. Take `COc1cc(F)ccc1[C@H]1C[C@@H]1COc1ccn2c(CC3CC3)nnc2c1C(F)(F)F` (racemic) [Example 49, (±)-3-(Cyclopropylmethyl)-7-(((1S,2S)-2-(4-fluoro-2-methoxyphenyl)cyclopropyl)methoxy)-8-(trifluoromethyl)-[1,2,4]triazolo[4,3-a]pyridine]: the EC50 under setting [1] was 0.4 nM. In the case of `Fc1ccc([C@H]2C[C@@H]2COc2ccn3c(CC4CC4)nnc3c2C(F)(F)F)cc1` (racemic) [Example 77, (±)-3-(Cyclopropylmethyl)-7-(((1S,2S)-2-(4-fluorophenyl)cyclopropyl)methoxy)-8-(trifluoromethyl)-[1,2,4]triazolo[4,3-a]pyridine], the EC50 (EC50 (nM), activity in mGluR2 cAMP assay) was determined as 1.7 nM.

Consider `FC(COc1ccn2c(CC3CC3)nnc2c1C(F)(F)F)c1ccccc1` (racemic) [Example 84, 3-(Cyclopropylmethyl)-7-(2-fluoro-2-phenylethoxy)-8-(trifluoromethyl)-[1,2,4]triazolo[4,3-a]pyridine], for which the EC50 under setting [1] was 5.8 nM. On the same count and under the same terms, in the case of `FC(F)(F)c1c(OCc2ccccc2)ccn2c(CC3CC3)nnc12` (racemic) [Example 85, 7-(Benzyloxy)-3-(cyclopropylmethyl)-8-(trifluoromethyl)-[1,2,4]triazolo[4,3-a]pyridine] it was 25 nM; in that of `CO[C@]1(c2ccc(F)cc2)CC[C@H](Oc2ccn3c(C4CC4(F)F)nnc3c2C(F)(F)F)CC1` (mixture of isomers) [Example 86, (±)-3-(2,2-Difluorocyclopropyl)-7-((1s,4s)-4-(4-fluorophenyl)-4-methoxycyclohexyloxy)-8-(trifluoromethyl)-[1,2,4]triazolo[4,3-a]pyridine], 6.9 nM; in that of `CO[C@]1(c2ccc(F)cc2)CC[C@H](Oc2ccn3c(C4CC4(C)C)nnc3c2C(F)(F)F)CC1` (mixture of isomers) [Example 94, 3-(2,2-Dimethylcyclopropyl)-7-((1s,4s)-4-(4-fluorophenyl)-4-methoxycyclohexyloxy)-8-(trifluoromethyl)-[1,2,4]triazolo[4,3-a]pyridine], 12 nM.

`Fc1ccc([C@H]2C[C@H](Oc3ccn4c(C5CC5(F)F)nnc4c3C(F)(F)F)C2)cc1` (mixture of isomers) [Example 98, (±)-3-(2,2-Difluorocyclopropyl)-7-((1r,3r)-3-(4-fluorophenyl)cyclobutoxy)-8-(trifluoromethyl)-[1,2,4]triazolo[4,3-a]pyridine]: under setting [1], the 50% effective concentration (EC50) was 5.1 nM. `CO[C@]1(c2ccc(F)cc2)CC[C@H](Oc2ccn3c([C@@H]4C[C@H]4F)nnc3c2C(F)(F)F)CC1` (relative stereo) [Example 89, (±)-rel-3-((1S,2R)-2-Fluorocyclopropyl)-7-((1s,4s)-4-(4-fluorophenyl)-4-methoxycyclohexyloxy)-8-(trifluoromethyl)-[1,2,4]triazolo[4,3-a]pyridine]: the concentration for a half-maximal effect (EC50) under setting [1] was found to be 41 nM.

With `C[C@@H](COc1ccn2c(CC3CC3)nnc2c1C(F)(F)F)c1c(F)cccc1Cl` (single isomer, unassigned) [Example 9], the EC50 under setting [1] turned out to be 0.8 nM. Regarding `C[C@H](COc1ccn2c(CC3CC3)nnc2c1C(F)(F)F)c1c(F)cccc1Cl` (single isomer, unassigned) [Example 10], the EC50 under setting [1] is 0.8 nM. Regarding `C[C@@](C#N)(COc1ccn2c(CC3CC3)nnc2c1C(F)(F)F)c1ccc(F)cc1` (single isomer, unassigned) [Example 14], the EC50 under setting [1] turned out to be 230 nM. Same read-out and setting: under `C[C@](C#N)(COc1ccn2c(CC3CC3)nnc2c1C(F)(F)F)c1ccc(F)cc1` (single isomer, unassigned) [Example 15] stands 80 nM. In the case of `CO[C@@](C)(COc1ccn2c(CC3CC3)nnc2c1C(F)(F)F)c1ccc(F)cc1` (single isomer, unassigned) [Example 24], under setting [1], the 50% effective concentration (EC50) amounted to 36 nM.

On to `CO[C@](C)(COc1ccn2c(CC3CC3)nnc2c1C(F)(F)F)c1ccc(F)cc1` (single isomer, unassigned) [Example 25], for which the EC50 under setting [1] was found to be 25 nM. For `COc1cccc(F)c1[C@H]1C[C@@H]1COc1ccn2c(CC3CC3)nnc2c1C(F)(F)F` (single isomer, unassigned) [Example 35], the EC50 under setting [1] was found to be 0.2 nM. For the compound `COc1cccc(F)c1[C@@H]1C[C@H]1COc1ccn2c(CC3CC3)nnc2c1C(F)(F)F` (single isomer, unassigned) [Example 36], under setting [1], the concentration giving a half-maximal response (EC50) amounted to 0.2 nM. The same measure, in the same setting: under `COc1ccccc1[C@H]1C[C@@H]1COc1ccn2c(CC3CC3)nnc2c1C(F)(F)F` (single isomer, unassigned) [Example 39] stands 0.6 nM; under `COc1ccccc1[C@@H]1C[C@H]1COc1ccn2c(CC3CC3)nnc2c1C(F)(F)F` (single isomer, unassigned) [Example 40], 1.4 nM.
